Where two headings read alike, the source gives them in different places.
Assays:
[1] = test system: vaccinia virus (strain Copenhagen)
in vitro [2] = details: African green monkey
in vitro [3] = details: human
[4] = test system: vaccinia virus (strain Copenhagen); assay: microbe, parasite or virus in culture; details: Orthopoxvirus vaccinia, Vero, 96 h
[5] = test system: Marburg pseudovirus (GP MARV); assay: microbe, parasite or virus in culture; details: 24 h
[6] = test system: Marburg pseudovirus (GP MARV)
VSV-GP-EboV = details: cited from earlier work
VV = details: cited from earlier work
H1N1 = details: cited from earlier work

SMILES	CC50 (in vitro [2]) [µM]	CC50 (Vero cells)	CC50 (in vitro [3]) [µM]	IC50 [4] [µM]	IC50 [5] [µM]	SI (CC50/IC50) [6]	IC50 (VSV-GP-EboV) [µM]	SI (VSV-GP-EboV)	also measured
CC1(C)[C@H]2CC[C@]1(C)/C(=N/NC(=S)Nc1ccccc1)C2 [2′a, (E)-N-phenyl-2-((1S,4S)-1,7,7-trimethylbicyclo[2.2.1]heptan-2-ylidene)hydrazinecarbothioamide]	16 ± 2.8	quite toxic	280 ± 38.6	4.3 ± 1.8	5.9 ± 2.1				IC50 [1]: lower micromolar range; SI (CC50/IC50) [1]: 4
CNC(=S)N/N=C1\C[C@@H]2CC[C@@]1(C)C2(C)C [2′d, (E)-N-methyl-2-((1S,4S)-1,7,7-trimethylbicyclo[2.2.1]heptan-2-ylidene)hydrazinecarbothioamide]	130 ± 14.2	least cytotoxicity	66.9 ± 18.2	35 ± 5.8	29.2 ± 4.2	2			IC50 [1]: low; SI (CC50/IC50) [1]: 5
CC1(C)[C@@H]2CC[C@@]1(C)/C(=N/NC(=S)Nc1ccccc1)C2 [Compound 2a, (E)-N-phenyl-2-((1R,4R)-1,7,7-trimethylbicyclo[2.2.1]heptan-2-ylidene)hydrazinecarbothioamide]	24 ± 3.4	quite toxic	700 ± 43.1	6.7 ± 0.9	398 ± 33.2	2			IC50 [1]: lower micromolar range; SI (CC50/IC50) [1]: 4
C=CCNC(=S)N/N=C1\C[C@H]2CC[C@]1(C)C2(C)C [Compound 2b, (E)-N-allyl-2-((1R,4R)-1,7,7-trimethylbicyclo[2.2.1]heptan-2-ylidene)hydrazinecarbothioamide]	200 ± 23.8	least cytotoxicity	128 ± 37.8		24.5 ± 3.8	5			IC50 [1]: low
CNC(=S)N/N=C1\C[C@H]2CC[C@]1(C)C2(C)C [Compound 2d, (E)-N-methyl-2-((1R,4R)-1,7,7-trimethylbicyclo[2.2.1]heptan-2-ylidene)hydrazinecarbothioamide]	150 ± 17.9	least cytotoxicity	62.8 ± 17.1	97 ± 19.8	28 ± 4.2				IC50 [1]: low; SI (CC50/IC50) [1]: 2
CC12CCC(CC1=NN=C1SCC(=O)N1c1ccccc1)C2(C)C [Compound 3a, ((Z)-3-phenyl-2-((E)-((1R,4R)-1,7,7-trimethylbicyclo[2.2.1]heptan-2-ylidene)hydrazono)thiazolidin-4-one]	290 ± 39.1		1260 ± 52.7		237 ± 5.9	5			CC50 (HEK293FT cells): least toxicity
C=CCN1C(=O)C(C)(C)S/C1=N/N=C1/C[C@H]2CC[C@]1(C)C2(C)C [Compound 4b, (Z)-3-allyl-5,5-dimethyl-2-((E)-((1R,4R)-1,7,7-trimethylbicyclo[2.2.1]heptan-2-ylidene)hydrazono)thiazolidin-4-one]			959.5 ± 6.8		255 ± 45	4			CC50 (HEK293FT cells): least toxicity
CN1C(=O)C(C)(C)S/C1=N/N=C1/C[C@H]2CC[C@]1(C)C2(C)C [Compound 4d, (Z)-3,5,5-trimethyl-2-((E)-((1R,4R)-1,7,7-trimethylbicyclo[2.2.1]heptan-2-ylidene)hydrazono)thiazolidin-4-one]	310 ± 38.7	low toxicity	514 ± 34.1	12.7 ± 1.4	39 ± 3.3	13			IC50 [1]: highest activity; SI (CC50/IC50) [1]: 24
CC1(C)[C@@H]2CC[C@@]1(C)/C(=N/N=c1/scc(-c3ccc(Cl)cc3)n1-c1ccccc1)C2 [Compound 5a, (E)-4-(4-chlorophenyl)-3-phenyl-2-((E)-((1R,4R)-1,7,7-trimethylbicyclo[2.2.1]heptan-2-ylidene)hydrazono)-2,3-dihydrothiazole]	229 ± 24.7		872 ± 52.8		103 ± 6.9	8			CC50 (HEK293FT cells): least toxicity
Cn1c(-c2ccc(Cl)cc2)cs/c1=N/N=C1\C[C@H]2CC[C@]1(C)C2(C)C [Compound 5d, (E)-4-(4-chlorophenyl)-3-methyl-2-((E)-((1R,4R)-1,7,7-trimethylbicyclo[2.2.1]heptan-2-ylidene)hydrazono)-2,3-dihydrothiazole]	144 ± 18.7	least toxic	107 ± 5.3	2.6 ± 0.2	10.7 ± 2.7	10			
Cn1c(-c2ccccc2)cs/c1=N/N=C1\C[C@H]2CC[C@]1(C)C2(C)C [Compound 8d, (E)-3-methyl-4-phenyl-2-((E)-((1R,4R)-1,7,7-trimethylbicyclo[2.2.1]heptan-2-ylidene)hydrazono)-2,3-dihydrothiazole]	14 ± 2.4		< 44.2	1.5 ± 0.2	26.5 ± 5.9	<2			SI (CC50/IC50) [1]: 9
CCN1CCN(CCC(=O)N[C@@H]2C[C@H]3CC[C@]2(C)C3(C)C)CC1 [IIIa]							0.6	908	
CC1(C)[C@@H]2CC[C@@]1(C)[C@H](NC(=O)CN1CCOCC1)C2 [IIIb]							5.7	147	IC50 (VV): 12.5 µM; SI (VV): 40
CC1(C)[C@H]2CC[C@]1(C)[C@H](OC(=O)CN1CCOCC1)C2 [IIa]							24.9	13	IC50 (H1N1): 7.1 µM; SI (H1N1): 82; IC50 (VV): 17.9 µM; SI (VV): 56
CN1CCN(CC(=O)O[C@@H]2C[C@@H]3CC[C@@]2(C)C3(C)C)CC1 [IIb]							6.8	46	IC50 (H1N1): 4.4 µM; SI (H1N1): 23
CC1(C)[C@@H]2CC[C@@]1(CS(=O)(=O)N1CCOCC1)C(=O)C2 [IVa]							0.9	921	
CC1(C)[C@@H]2CC[C@@]1(CS(=O)(=O)n1cncn1)C(=O)C2 [IVb]							1	1764	
CC1CCN(CCC(=O)O[C@@H]2C[C@@H]3CC[C@@]2(C)C3(C)C)CC1 [Ia]							0.3	956	
CC1(C)[C@H]2CC[C@]1(C)[C@H](OC(=O)CCN1CCOCC1)C2 [Ib]									IC50 (H1N1): 12.2 µM; SI (H1N1): 45; IC50 (VV): 3.5 µM; SI (VV): 48
CN1CCN(CCC(=O)O[C@@H]2C[C@@H]3CC[C@@]2(C)C3(C)C)CC1 [Ic]							0.3	870	IC50 (H1N1): 1.9 µM; SI (H1N1): 215
CC1(C)[C@@H]2CC[C@@]1(C)/C(=N/Nc1nc(-c3ccc(Cl)cc3)cs1)C2 [Va]									IC50 (VV): 2.7 µM; SI (VV): 24
CC1(C)[C@@H]2CC[C@@]1(C)/C(=N/Nc1nc(-c3ccc(Br)cc3)cs1)C2 [Vb]									IC50 (VV): 2.4 µM; SI (VV): 32
COc1ccc(-c2csc(N/N=C3\C[C@H]4CC[C@]3(C)C4(C)C)n2)cc1 [Vc]									IC50 (VV): 3.7 µM; SI (VV): 26
